Assay results published in patent publication US20240175019A1, “Skeletal Muscle Delivery Platforms and Methods of Use” (Arrowhead Pharmaceuticals, Inc., priority 2020, published 2024).
Oligonucleotides are written 5' to 3', each unit as a sugar letter and its base; * is a phosphorothioate linkage, no mark a phosphodiester; rarer units and linkages stand in square brackets, end groups in braces. Plain capitals give the bases only. {NH2-C6} = C6 amine reactive group for conjugation; {Alk-cyHex} = alkyne-cyclohexyl conjugation group; [invAb] = inverted abasic deoxyribose residue; [C6-SS-C6] = C6-disulfide-C6 linker; d = 2'-deoxy (DNA); m = 2'-O-methyl; f = 2'-fluoro

What follows are substances tested on myostatin mRNA (assay: MSTN expression in triceps of mice by qPCR TaqMan assay (Example 7)). Conditions: Day 22, mice, 3 mg/kg single injection on Day 1, n=4.
Format: in vivo
Experimental: On Study Day 1, mice were injected with either isotonic saline (vehicle control) or 3 mg/kg (mpk) of RNAi agent formulated in isotonic saline according to the following dosing Groups:
The RNAi agents in Example 7 were synthesized having nucleotide sequences directed to target the MSTN gene, and groups 1 and 3 included a functionalized amine reactive group (NH2-C6) at the 5′ terminal end of the sense strand to facilitate conjugation to L4 which could then be conjugated to the small molecule targeting ligand Compound 45b. Group 2 included an (Alk-cyHex)s (see Table 28 for structure details) which was conjugated to the small molecule targeting ligand Compound 45b. The myostatin RNAi agents further included a PEG48+C22 PK/PD modulator, which was linked to the 3′ end of the sense strand.
Four (4) mice were dosed in each Group (n=4). Mice were sacrificed on study day 22, and total myostatin mRNA was isolated from the triceps. Triceps were harvested from right front limb. Each sample was snap-frozen in percellys tubes and stored in a −80° C. freezer until assays were completed. Relative MSTN expression was determined by qPCR TaqMan Assay on muscle tissue.

Substance	Average relative MSTN expression, Relative Expression
AD06326: AS: usGfsusUfaCfagcaaGfaUfcAfuGfgCfsc; SS: (NH2-C6)s(invAb)sggccaugaUfCfUfugcuguaacas(invAb)(C6-SS-C6)dT (antisense mU*fG*mU*fUmAfCmAmGmCmAmAfGmAfUmCfAmUfGmGfC*mC; sense {NH2-C6}*[invAb]*mGmGmCmCmAmUmGmAfUfCfUmUmGmCmUmGmUmAmAmCmA*[invAb][C6-SS-C6]dT; siRNA; Compound 45b ligand via L4 on sense 5' amine, PEG48+C22 at sense 3')	0.296
AD06912: AS: usGfsusUfaCfagcaaGfaUfcAfuGfgCfsc; SS: (Alk-cyHex)s(invAb)sggccaugaUfCfUfugcuguaacas(invAb)(C6-SS-C6)dT (antisense mU*fG*mU*fUmAfCmAmGmCmAmAfGmAfUmCfAmUfGmGfC*mC; sense {Alk-cyHex}*[invAb]*mGmGmCmCmAmUmGmAfUfCfUmUmGmCmUmGmUmAmAmCmA*[invAb][C6-SS-C6]dT; siRNA; Compound 45b ligand on sense 5' Alk-cyHex, PEG48+C22 at sense 3')	0.253
AD06916: AS: usGfsusUfaCfagcaaGfaUfcAfuGfgCfsc; SS: (NH2-C6)s(invAb)sggccaugaUfCfUfugcuguaacas(invAb)s(C6-SS-C6)dT (antisense mU*fG*mU*fUmAfCmAmGmCmAmAfGmAfUmCfAmUfGmGfC*mC; sense {NH2-C6}*[invAb]*mGmGmCmCmAmUmGmAfUfCfUmUmGmCmUmGmUmAmAmCmA*[invAb]*[C6-SS-C6]dT; siRNA; Compound 45b ligand via L4 on sense 5' amine, PEG48+C22 at sense 3')	0.295
